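Protocol summary: plate cells (96-well), add compound at 5 concentrations, incubate 48 h, interpolate endpoints linearly. GI50: concentration for 50% inhibition of growth. At the TGI there is no net growth.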
Legend:
Assay in all cases: NCI tumour cell line growth inhibition, 48 h
786-0 renal = system: 786-0 renal
A498 renal = system: A498 renal
A549 NSCLC = system: A549 NSCLC
ACHN renal = system: ACHN renal
BT-549 breast = system: BT-549 breast
CAKI-1 renal = system: CAKI-1 renal
CCRF-CEM leukemia = system: CCRF-CEM leukemia
COLO 205 colon = system: COLO 205 colon
DU-145 prostate = system: DU-145 prostate
EKVX NSCLC = system: EKVX NSCLC
HCC-2998 colon = system: HCC-2998 colon
HCT-116 colon = system: HCT-116 colon
HCT-15 colon = system: HCT-15 colon
HL-60(TB) leukemia = system: HL-60(TB) leukemia
HOP-62 NSCLC = system: HOP-62 NSCLC
HOP-92 NSCLC = system: HOP-92 NSCLC
HS 578T breast = system: HS 578T breast
HT29 colon = system: HT29 colon
IGROV1 ovarian = system: IGROV1 ovarian
K-562 leukemia = system: K-562 leukemia
KM12 colon = system: KM12 colon
LOX IMVI melanoma = system: LOX IMVI melanoma
M14 melanoma = system: M14 melanoma
MALME-3M melanoma = system: MALME-3M melanoma
MCF7 breast = system: MCF7 breast
MDA-MB-231 breast = system: MDA-MB-231 breast
MDA-MB-435 = system: MDA-MB-435
MDA-MB-468 breast = system: MDA-MB-468 breast
MOLT-4 leukemia = system: MOLT-4 leukemia
NCI-H226 lung = system: NCI-H226 lung
NCI-H23 lung = system: NCI-H23 lung
NCI-H460 lung = system: NCI-H460 lung
NCI-H522 lung = system: NCI-H522 lung
NCI/ADR-RES ovarian = system: NCI/ADR-RES ovarian
OVCAR-3 ovarian = system: OVCAR-3 ovarian
OVCAR-4 ovarian = system: OVCAR-4 ovarian
OVCAR-5 ovarian = system: OVCAR-5 ovarian
OVCAR-8 ovarian = system: OVCAR-8 ovarian
PC-3 prostate = system: PC-3 prostate
RPMI-8226 leukemia = system: RPMI-8226 leukemia
RXF 393 renal = system: RXF 393 renal
SF-268 CNS = system: SF-268 CNS
SF-295 CNS = system: SF-295 CNS
SF-539 CNS = system: SF-539 CNS
SK-MEL-2 melanoma = system: SK-MEL-2 melanoma
SK-MEL-28 melanoma = system: SK-MEL-28 melanoma
SK-MEL-5 melanoma = system: SK-MEL-5 melanoma
SK-OV-3 ovarian = system: SK-OV-3 ovarian
SN12C renal = system: SN12C renal
SNB-19 CNS = system: SNB-19 CNS
SNB-75 CNS = system: SNB-75 CNS
SW-620 colon = system: SW-620 colon
T-47D breast = system: T-47D breast
TK-10 renal = system: TK-10 renal
U251 CNS = system: U251 CNS
UACC-257 melanoma = system: UACC-257 melanoma
UACC-62 melanoma = system: UACC-62 melanoma
UO-31 renal = system: UO-31 renal

## C=C1CC[C@@H]2[C@]3(C)COC(c4ccco4)O[C@@H]3CC[C@@]2(C)[C@@H]1C/C=C1/C(=O)OCC1OC(C)=O (stereo partly specified)
786-0 renal
  GI50: 18 µM
  TGI: 32.8 µM
A498 renal
  GI50: > 100 µM
  TGI: > 100 µM
A549 NSCLC
  GI50: 28.2 µM
  TGI: > 100 µM
ACHN renal
  GI50: 14.9 µM
  TGI: 28.8 µM
BT-549 breast
  GI50: 15 µM
  TGI: 29.1 µM
CAKI-1 renal
  GI50: 15.8 µM
  TGI: 32.2 µM
CCRF-CEM leukemia
  GI50: 2.56 µM
  TGI: 9.9 µM
COLO 205 colon
  GI50: 16 µM
  TGI: 31.3 µM
DU-145 prostate
  GI50: 15.2 µM
  TGI: 29.5 µM
EKVX NSCLC
  GI50: 14.5 µM
  TGI: 31.4 µM
HCC-2998 colon
  GI50: 16.8 µM
  TGI: 31.4 µM
HCT-116 colon
  GI50: 10.8 µM
  TGI: 26 µM
HCT-15 colon
  GI50: 15.6 µM
  TGI: 38.4 µM
HL-60(TB) leukemia
  GI50: 9.35 µM
  TGI: 85.6 µM
HOP-62 NSCLC
  GI50: 21.8 µM
  TGI: 55.7 µM
HOP-92 NSCLC
  GI50: 12.3 µM
  TGI: 45.2 µM
HS 578T breast
  GI50: 26.1 µM
  TGI: > 100 µM
HT29 colon
  GI50: 13.8 µM
  TGI: 30.7 µM
IGROV1 ovarian
  GI50: 16.5 µM
  TGI: 34.2 µM
K-562 leukemia
  GI50: 5.84 µM
  TGI: > 100 µM
KM12 colon
  GI50: 21.7 µM
  TGI: 68.7 µM
LOX IMVI melanoma
  GI50: 11.8 µM
  TGI: 24.1 µM
M14 melanoma
  GI50: 16.3 µM
  TGI: 34.2 µM
MALME-3M melanoma
  GI50: 14.7 µM
  TGI: 29.3 µM
MCF7 breast
  GI50: 12.4 µM
  TGI: 32.4 µM
MDA-MB-231 breast
  GI50: 15 µM
  TGI: 30.9 µM
MDA-MB-435
  GI50: 15.6 µM
  TGI: 37 µM
MDA-MB-468 breast
  GI50: 13.4 µM
  TGI: 26.6 µM
MOLT-4 leukemia
  GI50: 19.6 µM
  TGI: > 100 µM
NCI-H226 lung
  GI50: 16.6 µM
  TGI: 35.1 µM
NCI-H23 lung
  GI50: 17.6 µM
  TGI: 35.2 µM
NCI-H460 lung
  GI50: 18.2 µM
  TGI: 38.6 µM
NCI-H522 lung
  GI50: 13.6 µM
  TGI: 26.7 µM
NCI/ADR-RES ovarian
  GI50: 17 µM
  TGI: 38 µM
OVCAR-3 ovarian
  GI50: 10.8 µM
  TGI: 26.6 µM
OVCAR-4 ovarian
  GI50: 13.5 µM
  TGI: 38.4 µM
OVCAR-5 ovarian
  GI50: 17.6 µM
  TGI: 31.9 µM
OVCAR-8 ovarian
  GI50: 12.8 µM
  TGI: 28.7 µM
PC-3 prostate
  GI50: 13.2 µM
  TGI: 39.6 µM
RPMI-8226 leukemia
  GI50: 3.11 µM
  TGI: 38.1 µM
RXF 393 renal
  GI50: 11.1 µM
  TGI: 24.9 µM
SF-268 CNS
  GI50: 27.9 µM
  TGI: > 100 µM
SF-295 CNS
  GI50: 25.9 µM
  TGI: > 100 µM
SF-539 CNS
  GI50: 14 µM
  TGI: 27 µM
SK-MEL-2 melanoma
  GI50: 14.6 µM
  TGI: 29 µM
SK-MEL-28 melanoma
  GI50: 15.7 µM
  TGI: 29.7 µM
SK-MEL-5 melanoma
  GI50: 15.8 µM
  TGI: 31.3 µM
SK-OV-3 ovarian
  GI50: 57.7 µM
  TGI: > 100 µM
SN12C renal
  GI50: 14.4 µM
  TGI: 30.6 µM
SNB-19 CNS
  GI50: 25.3 µM
  TGI: 84.2 µM
SNB-75 CNS
  GI50: 5.83 µM
  TGI: 49.6 µM
SW-620 colon
  GI50: 9.77 µM
  TGI: 23.8 µM
T-47D breast
  GI50: 18.6 µM
  TGI: 55.1 µM
TK-10 renal
  GI50: 25.9 µM
  TGI: 62.4 µM
U251 CNS
  GI50: 15.2 µM
  TGI: 28.6 µM
UACC-257 melanoma
  GI50: 15.5 µM
  TGI: 32.8 µM
UACC-62 melanoma
  GI50: 13.6 µM
  TGI: 28.8 µM
UO-31 renal
  GI50: 13.2 µM
  TGI: 26 µM

Source: PubChem BioAssay (NCI)
